# Source: PMC3355305, “Localized Dimerization and Nucleoid Binding Drive Gradient Formation by the Bacterial Cell Division Inhibitor MipZ” (Molecular Cell, 2012)
# T1: ParB (Caulobacter crescentus, UniProt B8GW30 1-304)
# T1 sequence: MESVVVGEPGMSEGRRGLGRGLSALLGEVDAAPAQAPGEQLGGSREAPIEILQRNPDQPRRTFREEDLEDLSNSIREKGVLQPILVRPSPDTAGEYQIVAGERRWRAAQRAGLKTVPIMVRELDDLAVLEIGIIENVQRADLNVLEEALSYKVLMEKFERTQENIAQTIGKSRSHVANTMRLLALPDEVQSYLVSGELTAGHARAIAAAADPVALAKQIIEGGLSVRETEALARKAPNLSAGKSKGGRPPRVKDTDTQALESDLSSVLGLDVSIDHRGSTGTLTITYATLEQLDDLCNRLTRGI
# T2: MipZ-D42A (Caulobacter crescentus, UniProt Q9A6C9 1-278, D42A)
# T2 sequence: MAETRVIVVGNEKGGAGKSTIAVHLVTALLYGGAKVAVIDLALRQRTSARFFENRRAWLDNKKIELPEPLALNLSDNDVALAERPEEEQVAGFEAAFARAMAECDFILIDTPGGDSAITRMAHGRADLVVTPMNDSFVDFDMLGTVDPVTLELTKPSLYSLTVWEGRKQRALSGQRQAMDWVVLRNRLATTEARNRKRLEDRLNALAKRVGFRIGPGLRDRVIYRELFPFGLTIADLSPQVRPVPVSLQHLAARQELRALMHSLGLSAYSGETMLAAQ
# T3: MipZ (Caulobacter crescentus, UniProt Q9A6C9 1-278)
# T3 sequence: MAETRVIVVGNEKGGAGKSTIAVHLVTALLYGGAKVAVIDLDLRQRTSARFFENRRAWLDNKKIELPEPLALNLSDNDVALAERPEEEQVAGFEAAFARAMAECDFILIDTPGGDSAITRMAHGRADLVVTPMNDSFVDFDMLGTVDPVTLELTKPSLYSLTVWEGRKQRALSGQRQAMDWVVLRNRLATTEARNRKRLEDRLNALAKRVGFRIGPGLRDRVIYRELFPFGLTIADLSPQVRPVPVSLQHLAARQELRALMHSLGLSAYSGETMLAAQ
# What was measured:
# MipZ [1] = assay: Transient kinetic (stopped-flow) analysis of mant nucleotide binding to wild-type MipZ; design: species or system Caulobacter crescentus; conditions: for kon: 30°C, buffer P; for Kd: calculated KD = koff/kon; for koff: displacement by excess unlabeled nucleotide
# Text: (§1) Once released from the dimeric complex, MipZ monomers must undergo nucleotide exchange to enter the next reaction cycle (Figure 2A). To clarify the requirements for the exchange reaction, we studied the nucleotide binding kinetics of MipZ by monitoring its interaction with methylanthraniloyl (mant)-labeled ADP and ATP analogs (Figure S3). Since the mant group blocks dimer formation, our measurements specifically focused on the initial nucleotide-binding step without interference from subsequent reactions.
# (§2) Figure S3. Steady-state and transient kinetic analysis of nucleotide binding to MipZ, Related to Table 2.
# (§3) (A) Fluorescence emission spectra of mant-ATP. MipZ (1 µM) and/or mant-ATP (60 µM) were mixed in buffer BC containing no (+ Mg2+) or 10 mM (- Mg2+) EDTA. Emission spectra were recorded in a PC1 photon-counting spectrofluorimeter (ISS) using fluorescence resonance energy transfer (FRET) and an excitation wavelength of 290 nm.
# (§4) (B) Association of MipZ with mant nucleotides.
# (§5) (data not shown), necessitating the use of ADP and ATP analogues that carried a fluorescent methylanthraniloyl (mant) group attached to the 2'- or 3'-hydroxy group of the ribose moiety. Due to the bulkiness of the mant group and a critical role of these hydroxy groups in MipZ dimerization, the modified nucleotides are predicted to block dimer formation, consistent with their failure to be hydrolyzed by MipZ or mediate MipZ self-association in the SPR assay (data not shown). This circumstance allowed us to focus the measurements on the initial nucleotide binding step without interference from subsequent reactions.
# (§6) Interaction of the mant group with the protein surface led to a marked increase in fluorescence (panel A). Consistent with the easy accessibility of the nucleotide-binding site and the lack of major conformational changes, the transients recorded after rapid mixing of MipZ with mant nucleotides could be fitted to single-exponential equations, indicating single-step binding reactions.
# (§7) Shown is a typical curve representing the change in mant fluorescence upon binding of mant-ATP (30 µM) to MipZ (1 µM).
# (§8) Fitting of the data yielded a pseudo-first order rate constant (kobs) of 4.7 s-1.
# (§9) (C) Determination of the second-order association rate constants (kon). The pseudo-first order rate constants for the association of […]
# (§10) determining the second-order rate constant of the association reaction. Shown is a representative graph in which the kobs values measured for mant-ATP were plotted against the corresponding mant-ATP concentrations. Fitting of the data to the linear function kobs=kon[mant-ATP]+koff yielded a value of 6.8 x 104 M-1s-1 for kon.
# (§11) (D) Dissociation of mant nucleotides from MipZ. In order to determine the dissociation rate constants (koff), we monitored the displacement of mant-labeled nucleotides from MipZ by an excess of unlabeled nucleotide. All transients obtained could be fitted to single-exponential functions. Shown is a typical curve representing the change in mant fluorescence upon dissociation of mant-ATP (30 µM) from MipZ (1 µM) in the presence of 2 mM ATP. […]
# (§12) […]
# (§13) (Murshudov et al. 1997) for apo-MipZ in crystal form 2. Transient kinetic analysis The structure of apo-MipZ in crystal form 1 was solved Transient kinetic experiments were conducted at 30°C by multiple-wavelength anomalous diffraction (MAD), in a Hi-Tech Scientific SF-61MX stopped-flow spectro- […]
# MipZ K13A = assay: Transient kinetic analysis of mant nucleotide binding to MipZ K13A; design: species or system Caulobacter crescentus; conditions: for Kd: calculated KD = koff/kon
# Text: as §1, §2, §3, §4, §5, §6, §7, §8, §9, §10, §11, §12, §13
# MipZ G14V = assay: Transient kinetic analysis of mant nucleotide binding to MipZ G14V; design: species or system Caulobacter crescentus; conditions: for Kd: calculated KD = koff/kon
# Text: as §1, §2, §3, §4, §5, §6, §7, §8, §9, §10, §11, §12, §13
# MipZ-D42A [2] = assay: Transient kinetic analysis of mant nucleotide binding to MipZ D42A; design: species or system Caulobacter crescentus; conditions: for Kd: calculated KD = koff/kon
# Text: as §1, §2, §3, §4, §5, §6, §7, §8, §9, §10, §11, §12, §13
# MipZ-K18Q = assay: Transient kinetic analysis of mant nucleotide binding to MipZ K18Q; design: species or system Caulobacter crescentus
# Text: as §1, §2, §3
# (B) Association of MipZ with mant nucleotides. […]
# as §6
# Shown is a typical curve representing the change in mant fluorescence upon binding of mant-ATP (30 µM) to MipZ (1 µM). […]
# determining the second-order rate constant of the association reaction. Shown is a representative graph in which the kobs values measured for mant-ATP were plotted against the corresponding mant-ATP concentrations. […]
# as §11, with “All transients obtained could be fitted to single-exponential functions.” left out
# ParB = biological target: T1, ParB; assay: SPR; ParB alone; SPR: buffer P2 or buffer BC (Mg2+-containing) with 2 mM nucleotide, composition not in material; EMSA: 1.25 mM nucleotide, 270 nM-5.6 uM protein, room temperature; conditions: protein: recombinant; tags: none (native ParB); chain copies: 2; label: biotin (immobilized); blunt
# MipZ-D42A [3] = biological target: T2, MipZ-D42A; assay: SPR; ATP; slower dissociation than WT; SPR: buffer P2 or buffer BC (Mg2+-containing) with 2 mM nucleotide, composition not in material; EMSA: 1.25 mM nucleotide, 270 nM-5.6 uM protein, room temperature; conditions: protein: recombinant; chain copies: 2; label: biotin (immobilized); blunt
# MipZ [4] = biological target: T3, MipZ; assay: SPR; 2 mM ATP, Mg2+; koff 1.5 min-1 (Fig S5C); SPR: buffer P2 or buffer BC (Mg2+-containing) with 2 mM nucleotide, composition not in material; EMSA: 1.25 mM nucleotide, 270 nM-5.6 uM protein, room temperature; conditions: protein: recombinant; chain copies: 2; label: biotin (immobilized); blunt
# MipZ-D42A [5] = biological target: T2, MipZ-D42A; assay: SPR; ATP; SPR: buffer P2 or buffer BC (Mg2+-containing) with 2 mM nucleotide, composition not in material; EMSA: 1.25 mM nucleotide, 270 nM-5.6 uM protein, room temperature; conditions: protein: recombinant; chain copies: 2; label: biotin; blunt
# MipZ [6] = biological target: T3, MipZ; assay: as above; conditions: protein: recombinant; chain copies: 2; label: biotin; blunt
# [7] = biological target: the molecule itself; assay: SPR; ATP; printed as 0.83 min-1
# [8] = biological target: the molecule itself; assay: SPR; 1 mM ATP (printed 0.83 min-1)
# [9] = biological target: the molecule itself; assay: SPR; 1 mM ATPγS (printed 0.18 min-1)
# [10] = biological target: the molecule itself; assay: SPR; ATP; printed as 0.067 min-1
# [11] = biological target: the molecule itself; assay: SPR; 1 mM ATP (printed 0.067 min-1)
molecule,measurement,setting,value
CNc1ccccc1C(=O)O[C@H]1[C@@H](O)[C@H](n2cnc3c(N)ncnc32)O[C@@H]1COP(=O)(O)OP(=O)(O)O [mant-ADP],average lifetime (τ = 1/koff) of the MipZ⋅nucleotide complex,MipZ [1]; WT MipZ,about 0.3 s
same,kon,MipZ [1]; WT MipZ,118000 M⁻¹ s⁻¹
same,Kd,MipZ [1]; WT MipZ,26 µM
same,koff,MipZ [1]; WT MipZ,3.1 s⁻¹
same,koff,MipZ K13A,3.5 s⁻¹
same,kon,MipZ K13A,86000 M⁻¹ s⁻¹
same,Kd,MipZ K13A,41 µM
same,koff,MipZ G14V,0.9 s⁻¹
same,kon,MipZ G14V,205000 M⁻¹ s⁻¹
same,Kd,MipZ G14V,4.5 µM
same,koff,MipZ-D42A [2],3.8 s⁻¹
same,kon,MipZ-D42A [2],55000 M⁻¹ s⁻¹
same,Kd,MipZ-D42A [2],69 µM
CNc1ccccc1C(=O)O[C@H]1[C@@H](O)[C@H](n2cnc3c(N)ncnc32)O[C@@H]1COP(=O)(O)OP(=O)(O)OP(=O)(O)O [mant-ATP],kon,MipZ [1]; WT MipZ,68000 M⁻¹ s⁻¹
same,Kd,MipZ [1]; WT MipZ,31 µM
same,koff,MipZ [1]; WT MipZ,2.1 s⁻¹
same,pseudo-first order rate constant (kobs),"MipZ [1]; mant-ATP 30 µM, MipZ 1 µM",4.7 s⁻¹
same,koff,MipZ K13A,2.1 s⁻¹
same,kon,MipZ K13A,56000 M⁻¹ s⁻¹
same,Kd,MipZ K13A,38 µM
same,koff,MipZ G14V,0.2 s⁻¹
same,kon,MipZ G14V,157000 M⁻¹ s⁻¹
same,Kd,MipZ G14V,1.3 µM
same,koff,MipZ-K18Q,7.5 s⁻¹
same,kon,MipZ-K18Q,62000 M⁻¹ s⁻¹
same,Kd,MipZ-K18Q; calculated KD = koff/kon,121 µM
same,koff,MipZ-D42A [2],4.5 s⁻¹
same,kon,MipZ-D42A [2],78000 M⁻¹ s⁻¹
same,Kd,MipZ-D42A [2],58 µM
ran2 (dsDNA) DNA 1: GTCGACAGAGTTCGCTAACATCGAGC DNA 2: GCTCGATGTTAGCGAACTCTGTCGAC,binding result,ParB,no binding
same,binding result,MipZ-D42A [3],binds
same,binding result,MipZ [4],binds
ran1 (dsDNA) DNA 1: GAGGCAGACTAGATCTTCTAGTTCGG DNA 2: CCGAACTAGAAGATCTAGTCTGCCTC,binding result,MipZ-D42A [5],binds
same,binding result,MipZ [6],binds
parSWT (dsDNA) DNA 1: GAGGCTTGTTTCACGTGAAACATCGG DNA 2: CCGATGTTTCACGTGAAACAAGCCTC,binding result,MipZ-D42A [5],binds
same,binding result,MipZ [6],binds
parSmt (dsDNA) DNA 1: GAGGCTTGTTTGAGCTCAAACATCGG DNA 2: CCGATGTTTGAGCTCAAACAAGCCTC,binding result,MipZ-D42A [5],binds
same,binding result,MipZ [6],binds
"MipZ (wild type), hexahistidine-tagged (natural protein) MAETRVIVVGNEKGGAGKSTIAVHLVTALLYGGAKVAVIDLDLRQRTSARFFENRRAWLDNKKIELPEPLALNLSDNDVALAERPEEEQVAGFEAAFARAMAECDFILIDTPGGDSAITRMAHGRADLVVTPMNDSFVDFDMLGTVDPVTLELTKPSLYSLTVWEGRKQRALSGQRQAMDWVVLRNRLATTEARNRKRLEDRLNALAKRVGFRIGPGLRDRVIYRELFPFGLTIADLSPQVRPVPVSLQHLAARQELRALMHSLGLSAYSGETMLAAQ",koff,[7],0.0138 s⁻¹
same,koff,[8],0.0138 s⁻¹
same,koff,[9],0.003 s⁻¹
"MipZ-D42A, hexahistidine-tagged (natural protein) MAETRVIVVGNEKGGAGKSTIAVHLVTALLYGGAKVAVIDLALRQRTSARFFENRRAWLDNKKIELPEPLALNLSDNDVALAERPEEEQVAGFEAAFARAMAECDFILIDTPGGDSAITRMAHGRADLVVTPMNDSFVDFDMLGTVDPVTLELTKPSLYSLTVWEGRKQRALSGQRQAMDWVVLRNRLATTEARNRKRLEDRLNALAKRVGFRIGPGLRDRVIYRELFPFGLTIADLSPQVRPVPVSLQHLAARQELRALMHSLGLSAYSGETMLAAQ",koff,[10],0.00112 s⁻¹
same,koff,[11],0.00112 s⁻¹
